# Where two headings read alike, the source gives them in different places.
# Key:
# Botrytis cinerea [1] = experiment: In vitro fungicidal activity, growth rate method (Cucumber gray mold); assay type: cell-based; parameters: key: “—” means the activity is not obvious
# Altemaria solani = experiment: In vitro fungicidal activity, growth rate method (Tomato early blight); assay type: cell-based
# Cercospora arachidicola = experiment: In vitro fungicidal activity, growth rate method (Peanut brown spot); assay type: cell-based; parameters: key: “—” means the activity is not obvious
# Botrytis cinerea [2] = experiment: In vitro fungicidal activity, growth rate method (Strawberry grey mold); assay type: cell-based; parameters: key: “—” means the activity is not obvious
# Alternaria kikuchiana = experiment: In vitro fungicidal activity, growth rate method (Pear black spot); assay type: cell-based
# [3] = test system: Fusarium oxysporum f. sp cucumerinum; experiment: In vitro fungicidal activity, growth rate method (Cucumber fusarium wilt); assay type: cell-based; parameters: key: “—” means the activity is not obvious
# Rhizoctonia solani = experiment: In vitro fungicidal activity, growth rate method (Rice sheath blight); assay type: cell-based
# Pyricularia grisea = assay type: cell-based; settings: Rice blast
# [4] = assay type: cell-based, Acinomycete spiculata; settings: Cucumber anthrax
# Fusarium moniliforme = experiment: In vitro fungicidal activity, growth rate method (Rice bakanae disease); assay type: cell-based; parameters: key: “—” means the activity is not obvious
# [5] = test system: Helminthosporium carposaprum; experiment: In vitro fungicidal activity, growth rate method (Corn spot); assay type: cell-based
# [6] = In vitro fungicidal activity, growth rate method (Colletotrichum capsici); assay type: cell-based, Acanthopteris fungi; settings: plant disease Colletotrichum capsici
# [7] = test system: Alternaria alternata (Fr.) Keissl; experiment: In vitro fungicidal activity, growth rate method (Apple altermaria leaf spot); assay type: cell-based
# Sclerotinia sclerotiorum [8] = experiment: In vitro fungicidal activity, growth rate method (Chili sclerotium); assay type: cell-based
# Mycosphaerella musicola = experiment: In vitro fungicidal activity, growth rate method (Banana leaf spot disease); assay type: cell-based
# [9] = test system: Sinoe ampelina (de Bary) Shear; experiment: In vitro fungicidal activity, growth rate method (Grape anthracnose); assay type: cell-based; parameters: key: “—” means the activity is not obvious
# Botryosphaeria = experiment: In vitro fungicidal activity, growth rate method (Apple ring spot); assay type: cell-based; parameters: key: “—” means the activity is not obvious
# [10] = test system: Sphaerotheca fuliginea (Schlecht) Poll.; experiment: In vitro fungicidal activity, growth rate method (Cucumber powdery mildew); assay type: cell-based
# Sclerotinia sclerotiorum [11] = experiment: In vitro fungicidal activity, growth rate method (Cucumber sclerotinia rot); assay type: cell-based
# Phytophthora = assay type: cell-based; settings: Potato late blight
# Erysiphe = experiment: In vitro fungicidal activity, growth rate method (Strawberry powdery mildew); assay type: cell-based
structure (smiles),measurement,setting,value
"CC1COC(Cn2cnnc2)(c2ccc(Oc3ccc(Cl)cc3)cc2Cl)O1 (stereo not drawn) [Formula I, 4-((-(2-chloro-4-(4-chlorophenoxy)phenyl)-4-methyl-1,3-dioxapentan-2-yl)methyl)-4H-1,2,4-triazole]",Fungicidal activity (inhibition ratio %),Botrytis cinerea [1]; 1 μg/mL,—
same,Fungicidal activity (inhibition ratio %),Botrytis cinerea [1]; 5 μg/mL,—
same,Fungicidal activity (inhibition ratio %),Botrytis cinerea [1]; 10 μg/mL,5.10%
same,Fungicidal activity (inhibition ratio %),Botrytis cinerea [1]; 15 μg/mL,9.98%
same,Fungicidal activity (inhibition ratio %),Botrytis cinerea [1]; 20 μg/mL,21.26%
same,Fungicidal activity (inhibition ratio %),Altemaria solani; 1 μg/mL,13.20%
same,Fungicidal activity (inhibition ratio %),Altemaria solani; 5 μg/mL,52.88%
same,Fungicidal activity (inhibition ratio %),Altemaria solani; 10 μg/mL,67.29%
same,Fungicidal activity (inhibition ratio %),Altemaria solani; 15 μg/mL,77.88%
same,Fungicidal activity (inhibition ratio %),Altemaria solani; 20 μg/mL,85.86%
same,Fungicidal activity (inhibition ratio %),Cercospora arachidicola; 1 μg/mL,—
same,Fungicidal activity (inhibition ratio %),Cercospora arachidicola; 5 μg/mL,19.71%
same,Fungicidal activity (inhibition ratio %),Cercospora arachidicola; 10 μg/mL,31.25%
same,Fungicidal activity (inhibition ratio %),Cercospora arachidicola; 15 μg/mL,39.48%
same,Fungicidal activity (inhibition ratio %),Cercospora arachidicola; 20 μg/mL,56.68%
same,Fungicidal activity (inhibition ratio %),Botrytis cinerea [2]; 1 μg/mL,—
same,Fungicidal activity (inhibition ratio %),Botrytis cinerea [2]; 5 μg/mL,—
same,Fungicidal activity (inhibition ratio %),Botrytis cinerea [2]; 10 μg/mL,7.12%
same,Fungicidal activity (inhibition ratio %),Botrytis cinerea [2]; 15 μg/mL,13.46%
same,Fungicidal activity (inhibition ratio %),Botrytis cinerea [2]; 20 μg/mL,29.22%
same,Fungicidal activity (inhibition ratio %),Alternaria kikuchiana; 1 μg/mL,29.98%
same,Fungicidal activity (inhibition ratio %),Alternaria kikuchiana; 5 μg/mL,35.76%
same,Fungicidal activity (inhibition ratio %),Alternaria kikuchiana; 10 μg/mL,46.61%
same,Fungicidal activity (inhibition ratio %),Alternaria kikuchiana; 15 μg/mL,59.78%
same,Fungicidal activity (inhibition ratio %),Alternaria kikuchiana; 20 μg/mL,67.44%
same,Fungicidal activity (inhibition ratio %),[3]; 1 μg/mL,—
same,Fungicidal activity (inhibition ratio %),[3]; 5 μg/mL,—
same,Fungicidal activity (inhibition ratio %),[3]; 10 μg/mL,18.32%
same,Fungicidal activity (inhibition ratio %),[3]; 15 μg/mL,31.77%
same,Fungicidal activity (inhibition ratio %),[3]; 20 μg/mL,48.18%
same,Fungicidal activity (inhibition ratio %),Rhizoctonia solani; 1 μg/mL,37.80%
same,Fungicidal activity (inhibition ratio %),Rhizoctonia solani; 5 μg/mL,52.79%
same,Fungicidal activity (inhibition ratio %),Rhizoctonia solani; 10 μg/mL,68.48%
same,Fungicidal activity (inhibition ratio %),Rhizoctonia solani; 15 μg/mL,72.82%
same,Fungicidal activity (inhibition ratio %),Rhizoctonia solani; 20 μg/mL,82.56%
same,Fungicidal activity (inhibition ratio %),Pyricularia grisea; 1 μg/mL,11.94%
same,Fungicidal activity (inhibition ratio %),Pyricularia grisea; 5 μg/mL,25.37%
same,Fungicidal activity (inhibition ratio %),Pyricularia grisea; 10 μg/mL,44.73%
same,Fungicidal activity (inhibition ratio %),Pyricularia grisea; 15 μg/mL,58.23%
same,Fungicidal activity (inhibition ratio %),Pyricularia grisea; 20 μg/mL,67.59%
same,Fungicidal activity (inhibition ratio %),[4]; 1 μg/mL,37.85%
same,Fungicidal activity (inhibition ratio %),[4]; 5 μg/mL,41.18%
same,Fungicidal activity (inhibition ratio %),[4]; 10 μg/mL,53.51%
same,Fungicidal activity (inhibition ratio %),[4]; 15 μg/mL,58.17%
same,Fungicidal activity (inhibition ratio %),[4]; 20 μg/mL,65.73%
same,Fungicidal activity (inhibition ratio %),Fusarium moniliforme; 1 μg/mL,—
same,Fungicidal activity (inhibition ratio %),Fusarium moniliforme; 5 μg/mL,22.26%
same,Fungicidal activity (inhibition ratio %),Fusarium moniliforme; 10 μg/mL,36.71%
same,Fungicidal activity (inhibition ratio %),Fusarium moniliforme; 15 μg/mL,45.62%
same,Fungicidal activity (inhibition ratio %),Fusarium moniliforme; 20 μg/mL,61.79%
same,Fungicidal activity (inhibition ratio %),[5]; 1 μg/mL,8.92%
same,Fungicidal activity (inhibition ratio %),[5]; 5 μg/mL,22.44%
same,Fungicidal activity (inhibition ratio %),[5]; 10 μg/mL,33.45%
same,Fungicidal activity (inhibition ratio %),[5]; 15 μg/mL,44.46%
same,Fungicidal activity (inhibition ratio %),[5]; 20 μg/mL,53.22%
same,Fungicidal activity (inhibition ratio %),[6]; 1 μg/mL,28.70%
same,Fungicidal activity (inhibition ratio %),[6]; 5 μg/mL,47.29%
same,Fungicidal activity (inhibition ratio %),[6]; 10 μg/mL,53.59%
same,Fungicidal activity (inhibition ratio %),[6]; 15 μg/mL,68.32%
same,Fungicidal activity (inhibition ratio %),[6]; 20 μg/mL,78.96%
same,Fungicidal activity (inhibition ratio %),[7]; 1 μg/mL,26.94%
same,Fungicidal activity (inhibition ratio %),[7]; 5 μg/mL,34.48%
same,Fungicidal activity (inhibition ratio %),[7]; 10 μg/mL,52.31%
same,Fungicidal activity (inhibition ratio %),[7]; 15 μg/mL,66.71%
same,Fungicidal activity (inhibition ratio %),[7]; 20 μg/mL,74.65%
same,Fungicidal activity (inhibition ratio %),Sclerotinia sclerotiorum [8]; 1 μg/mL,12.81%
same,Fungicidal activity (inhibition ratio %),Sclerotinia sclerotiorum [8]; 5 μg/mL,17.96%
same,Fungicidal activity (inhibition ratio %),Sclerotinia sclerotiorum [8]; 10 μg/mL,25.35%
same,Fungicidal activity (inhibition ratio %),Sclerotinia sclerotiorum [8]; 15 μg/mL,39.34%
same,Fungicidal activity (inhibition ratio %),Sclerotinia sclerotiorum [8]; 20 μg/mL,55.18%
same,Fungicidal activity (inhibition ratio %),Mycosphaerella musicola; 1 μg/mL,25.26%
same,Fungicidal activity (inhibition ratio %),Mycosphaerella musicola; 5 μg/mL,31.30%
same,Fungicidal activity (inhibition ratio %),Mycosphaerella musicola; 10 μg/mL,43.35%
same,Fungicidal activity (inhibition ratio %),Mycosphaerella musicola; 15 μg/mL,52.11%
same,Fungicidal activity (inhibition ratio %),Mycosphaerella musicola; 20 μg/mL,66.76%
same,Fungicidal activity (inhibition ratio %),[9]; 1 μg/mL,—
same,Fungicidal activity (inhibition ratio %),[9]; 5 μg/mL,25.12%
same,Fungicidal activity (inhibition ratio %),[9]; 10 μg/mL,42.04%
same,Fungicidal activity (inhibition ratio %),[9]; 15 μg/mL,52.93%
same,Fungicidal activity (inhibition ratio %),[9]; 20 μg/mL,65.18%
same,Fungicidal activity (inhibition ratio %),Botryosphaeria; 1 μg/mL,—
same,Fungicidal activity (inhibition ratio %),Botryosphaeria; 5 μg/mL,41.28%
same,Fungicidal activity (inhibition ratio %),Botryosphaeria; 10 μg/mL,53.56%
same,Fungicidal activity (inhibition ratio %),Botryosphaeria; 15 μg/mL,68.76%
same,Fungicidal activity (inhibition ratio %),Botryosphaeria; 20 μg/mL,73.46%
same,Fungicidal activity (inhibition ratio %),[10]; 1 μg/mL,38.70%
same,Fungicidal activity (inhibition ratio %),[10]; 5 μg/mL,57.29%
same,Fungicidal activity (inhibition ratio %),[10]; 10 μg/mL,63.59%
same,Fungicidal activity (inhibition ratio %),[10]; 15 μg/mL,78.32%
same,Fungicidal activity (inhibition ratio %),[10]; 20 μg/mL,88.96%
same,Fungicidal activity (inhibition ratio %),Sclerotinia sclerotiorum [11]; 1 μg/mL,12.55%
same,Fungicidal activity (inhibition ratio %),Sclerotinia sclerotiorum [11]; 5 μg/mL,34.23%
same,Fungicidal activity (inhibition ratio %),Sclerotinia sclerotiorum [11]; 10 μg/mL,51.21%
same,Fungicidal activity (inhibition ratio %),Sclerotinia sclerotiorum [11]; 15 μg/mL,64.29%
same,Fungicidal activity (inhibition ratio %),Sclerotinia sclerotiorum [11]; 20 μg/mL,71.84%
same,Fungicidal activity (inhibition ratio %),Phytophthora; 1 μg/mL,27.03%
same,Fungicidal activity (inhibition ratio %),Phytophthora; 5 μg/mL,31.96%
same,Fungicidal activity (inhibition ratio %),Phytophthora; 10 μg/mL,43.44%
same,Fungicidal activity (inhibition ratio %),Phytophthora; 15 μg/mL,65.08%
same,Fungicidal activity (inhibition ratio %),Phytophthora; 20 μg/mL,73.63%
same,Fungicidal activity (inhibition ratio %),Erysiphe; 1 μg/mL,33.24%
same,Fungicidal activity (inhibition ratio %),Erysiphe; 5 μg/mL,54.62%
same,Fungicidal activity (inhibition ratio %),Erysiphe; 10 μg/mL,67.26%
same,Fungicidal activity (inhibition ratio %),Erysiphe; 15 μg/mL,76.09%
same,Fungicidal activity (inhibition ratio %),Erysiphe; 20 μg/mL,79.02%
